Experiments:
Plasma [1] = experiment: Antiplatelet activity in rat platelet-rich plasma assessed as inhibition of platelet aggregation; type: functional, cell-free
Plasma [2] = experiment: Antiplatelet activity in human platelet-rich plasma assessed as inhibition of platelet aggregation; type: functional, cell-free

Row | Compound | IC50 (Plasma [1]) | IC50 (Plasma [2])
1 | CCCC(=O)c1cnn([C@H]2CC[C@H](NC(=O)c3cn(CC(=O)N4CCN(C)CC4)c4ccc(Cl)cc34)CC2)c1C | 91 nM | 270 nM
2 | CCCC(=O)c1cnn(C2CCN(NC(=O)c3cn(CC(=O)N4CCN(C)CC4)c4ccc(Cl)cc34)CC2)c1C | 43 nM | 25 nM

— ChEMBL document CHEMBL3392970, “Novel inhibitors of platelet aggregation” (ACS Med Chem Lett, 2015)
